Data: patent US20070004720A1, “Use of tyrosine kinase inhibitors for the treatment of inflammatory processes” (priority 2003, published 2007)

These compounds were tested on cigarette smoke-induced influx of neutrophilic granulocytes into the lung tissue (assay: Inhibition of the smoke-induced accumulation of granulocytes in the lung tissue (MPO activity)). Conditions: Rattus norvegicus; male Sprague-Dawley rats, 5 days cigarette smoke exposure, intratracheal dose daily 30 min before smoke, lung tissue MPO, linear regression; read-out: ID50 (dosage which led to a 50% inhibition of the MPO activity).
Assay type: in vivo, rats (strain: Sprague-Dawley)
Text: Inhibition of the Smoke-Induced Accumulation of Granulocytes in the Lung Tissue Lung indications: Inhibition of the cigarette smoke-induced influx of neutrophilic granulocytes into the lung tissue by the above-mentioned EGF-receptor kinase inhibitor. Male rats (strain: Sprague-Dawley) weighing from 250-300 g were exposed for 5 days to the smoke from 8 cigarettes per day. The animals in the group treated with compound A, anaesthetised with isofluran, were given an intratracheal dose of 0.03 or 0.1 mg/kg of compound A in a volume of 0.05 ml each day 30 min before the start of the exposure to smoke. On the last day of the test the animals were killed 4 hours after the last exposure to smoke and the lung tissue was removed. A sample of 70-200 mg was taken from each lung and placed in a test tube prepared with 1 ml of 0.5% hexadecyltrimethylammonium bromide. The samples were homogenised for 15 sec using an Ultraturrax. The homogenised samples were centrifuged at 15700 g in an Eppendorf bench centrifuge for 5 min at ambient temperature. […] of the supernatant was removed and mixed with […] of phosphate buffer (50 mmol/l) containing 0.197 mg/ml of O-dianisidine dihydrochloride. After 10 minutes' incubation at ambient temperature the absorption was measured with a spectral photometer at a wavelength of 450 nm. The dosage which led to a 50% inhibition of the MPO activity (=ID50) was determined by linear regression. Exposure to cigarette smoke in rats led to an influx of neutrophilic granulocytes into the lung tissue, measured by the content of myeloperoxidase in the tissues, which is specific for neutrophilic granulocytes.
Work on COc1cc2ncnc(Nc3ccc(F)c(Cl)c3)c2cc1OC1CCN(C(=O)N2CCOCC2)CC1 [A, 4-[(3-chloro-4-fluoro-phenyl)amino]-6-{1-[(morpholin-4-yl)carbonyl]-piperidin-4-yloxy}-7-methoxy-quinazoline] yielded an ED50 of 0.1 mg/kg. COCC(=O)N1CCC(Oc2cc3c(Nc4ccc(F)c(Cl)c4)ncnc3cc2OC)CC1 [B, 4-[(3-chloro-4-fluoro-phenyl)amino]-6-{1-[(methoxymethyl)carbonyl]-piperidin-4-yloxy}-7-methoxy-quinazoline] was tested, and the ED50 was 0.01 mg/kg. For COc1cc2ncnc(Nc3ccc(F)c(Cl)c3)c2cc1OC1CCN(CCNC(C)=O)CC1 [C, 4-[(3-chloro-4-fluoro-phenyl)amino]-6-[1-(2-acetylamino-ethyl)-piperidin-4-yloxy]-7-methoxy-quinazoline], the ED50 was 0.03 mg/kg. Work on COc1cc2ncnc(Nc3ccc(F)c(Cl)c3)c2cc1O[C@H]1CC[C@@H](N(C)C(=O)C2CCOCC2)CC1 [D, 4-[(3-chloro-4-fluoro-phenyl)amino]-6-(cis-4-{N-[(tetrahydropyran-4-yl)carbonyl]-N-methyl-amino}-cyclohexan-1-yloxy)-7-methoxy-quinazoline] yielded an ED50 of 0.02 mg/kg. For COc1cc2ncnc(Nc3ccc(F)c(Cl)c3)c2cc1O[C@H]1CC[C@@H](N(C)S(=O)(=O)N2CCOCC2)CC1 [E, 4-[(3-chloro-4-fluoro-phenyl)amino]-6-(cis-4-{N-[(morpholin-4-yl)sulphonyl]-N-methyl-amino}-cyclohexan-1-yloxy)-7-methoxy-quinazoline], the ED50 was 0.4 mg/kg. Compound COc1cc2ncnc(Nc3ccc(F)c(Cl)c3)c2cc1O[C@H]1CC[C@@H](NC(C)=O)CC1 [F, 4-[(3-chloro-4-fluoro-phenyl)amino]-6-(cis-4-acetylamino-cyclohexan-1-yloxy)-7-methoxy-quinazoline] has an ED50 of 0.015 mg/kg. C#Cc1cccc(Nc2ncnc3cc(OC)c(OC4CCN(C(=O)OC(C)(C)C)CC4)cc23)c1 [G, 4-[(3-ethynyl-phenyl)amino]-6-[1-(tert.-butyloxycarbonyl)-piperidin-4-yloxy]-7-methoxy-quinazoline] was tested, and the ED50 was 0.01 mg/kg. COc1cc2ncnc(Nc3ccc(F)c(Cl)c3)c2cc1O[C@H]1CC[C@@H](N(C)C(=O)N2CCCCC2)CC1 [H, 4-[(3-chloro-4-fluoro-phenyl)amino]-6-(cis-4-{N-[(piperidin-1-yl)carbonyl]-N-methyl-amino}-cyclohexan-1-yloxy)-7-methoxy-quinazoline] showed an ED50 of 0.15 mg/kg. COc1cc2ncnc(Nc3ccc(F)c(Cl)c3)c2cc1O[C@H]1CC[C@@H](N(C)C(=O)N2CCN(C)CC2)CC1 [I, 4-[(3-chloro-4-fluoro-phenyl)amino]-6-(cis-4-{N-[(4-methyl-piperazin-1-yl)carbonyl]-N-methyl-amino}-cyclohexan-1-yloxy)-7-methoxy-quinazoline] was tested, and the ED50 was 0.15 mg/kg. COc1cc2ncnc(Nc3ccc(F)c(Cl)c3)c2cc1O[C@H]1CC[C@@H](NC(=O)N2CCOCC2)CC1 [K, 4-[(3-chloro-4-fluoro-phenyl)amino]-6-{cis-4-[(morpholin-4-yl)carbonylamino]-cyclohexan-1-yloxy}-7-methoxy-quinazoline] showed an ED50 of 0.13 mg/kg. Compound COCCOc1cc2ncnc(Nc3ccc(F)c(Cl)c3)c2cc1OC1CCN(C(=O)N2CCOCC2)CC1 [L, 4-[(3-chloro-4-fluoro-phenyl)amino]-6-{1-[(morpholin-4-yl)carbonyl]-piperidin-4-yloxy}-7-(2-methoxy-ethoxy)-quinazoline] has an ED50 of 0.4 mg/kg. Work on C#Cc1cccc(Nc2ncnc3cc(OC)c(OC4CCN(C)CC4)cc23)c1 [M, 4-[(3-ethynyl-phenyl)amino]-6-(1-methyl-piperidin-4-yloxy)-7-methoxy-quinazoline] yielded an ED50 of 0.07 mg/kg.

Same assay, conditions: rats, intratracheal 0.03 or 0.1 mg/kg daily, 5 days smoke exposure, myeloperoxidase content of lung tissue
In the case of COc1cc2ncnc(Nc3ccc(F)c(Cl)c3)c2cc1OC1CCN(C(=O)N2CCOCC2)CC1 [A, 4-[(3-chloro-4-fluoro-phenyl)amino]-6-{1-[(morpholin-4-yl)carbonyl]-piperidin-4-yloxy}-7-methoxy-quinazoline], the “inhibition of the smoke-induced accumulation of granulocytes” value is reported as “significant (p<0.005) inhibition”.
